From ChEMBL document CHEMBL3124828, “A 2,6,9-hetero-trisubstituted purine inhibitor exhibits potent biological effects against multiple myeloma cells” (Bioorg Med Chem, 2013)
One block for each compound: values may come before it. Activity calls are given as the source filed them. No cut-off for these calls is given here.

Assays:
[1] = system: OCI-AML2; experiment: Cytotoxicity against human OCI-AML2 cells after 72 hrs by MTS assay; assay type: functional, cell-based
[2] = system: DU-145; experiment: Cytotoxicity against human DU145 cells after 72 hrs by MTS assay; assay type: functional, cell-based
[3] = system: MDA-MB-468; experiment: Cytotoxicity against human MDA-MB-468 cells after 72 hrs by MTS assay; assay type: functional, cell-based
[4] = Induction of apoptosis in human XG6 cells assessed as viable cells at 15 uM after 48 hrs by annexinV/propidium iodide staining (reference value: 83.3%); assay type: functional; conditions: XG6, 48 h, read-out: Activity
[5] = system: JJN-3; experiment: Induction of apoptosis in human JJN-3 cells assessed as late apoptotic cells at 15 uM after 48 hrs by annexinV/propidium iodide staining (reference value: 9.59%); assay type: functional
[6] = system: JJN-3; experiment: Induction of apoptosis in human JJN-3 cells assessed as early apoptotic cells at 15 uM after 48 hrs by annexinV/propidium iodide staining (reference value: 13.3%); assay type: functional
[7] = system: JJN-3; experiment: Induction of apoptosis in human JJN-3 cells assessed as viable cells at 15 uM after 48 hrs by annexinV/propidium iodide staining (reference value: 75.9%); assay type: functional; conditions: JJN-3, 48 h, read-out: Activity
[8] = Induction of apoptosis in human XG6 cells assessed as early apoptotic cells at 15 uM after 48 hrs by annexinV/propidium iodide staining (reference value: 8.62%); assay type: functional
[9] = Induction of apoptosis in human XG6 cells assessed as late apoptotic cells at 15 uM after 48 hrs by annexinV/propidium iodide staining (reference value: 7.78%); assay type: functional
[10] = target: Signal transducer and activator of transcription 3 (Homo sapiens) (UniProt P40763); experiment: Displacement of FAM-GpYLPQTV-NH2 from full-length Stat3 SH2 domain (unknown origin) up to 400 uM by fluorescence polarization
Signal transducer and activator of transcription 3 (Homo sapiens), sequence (P40763 whole entry, the tested form may be a part): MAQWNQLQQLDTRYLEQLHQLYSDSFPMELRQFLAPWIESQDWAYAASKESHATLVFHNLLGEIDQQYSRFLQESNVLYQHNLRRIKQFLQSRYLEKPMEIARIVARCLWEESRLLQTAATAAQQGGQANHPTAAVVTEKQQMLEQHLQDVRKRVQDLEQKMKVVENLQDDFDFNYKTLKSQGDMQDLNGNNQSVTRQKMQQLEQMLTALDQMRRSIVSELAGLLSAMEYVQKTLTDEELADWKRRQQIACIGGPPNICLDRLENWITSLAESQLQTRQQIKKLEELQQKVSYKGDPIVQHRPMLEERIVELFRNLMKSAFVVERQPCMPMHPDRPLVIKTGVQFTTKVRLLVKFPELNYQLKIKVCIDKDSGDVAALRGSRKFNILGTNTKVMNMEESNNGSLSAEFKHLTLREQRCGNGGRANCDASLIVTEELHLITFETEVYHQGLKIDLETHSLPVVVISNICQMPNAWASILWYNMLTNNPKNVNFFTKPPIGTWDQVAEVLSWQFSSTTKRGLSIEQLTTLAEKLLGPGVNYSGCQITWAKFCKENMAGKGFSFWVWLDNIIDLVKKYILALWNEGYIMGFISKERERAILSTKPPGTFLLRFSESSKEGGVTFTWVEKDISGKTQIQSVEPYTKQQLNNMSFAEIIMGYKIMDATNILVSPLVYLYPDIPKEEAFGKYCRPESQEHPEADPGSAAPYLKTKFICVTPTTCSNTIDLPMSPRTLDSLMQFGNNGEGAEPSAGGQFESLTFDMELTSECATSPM

Compound: CCOC(=O)Cn1cnc2c(NCCC(C)C)nc(NCc3ccc(C4CCCCC4)cc3)nc21
Activity [1]: inactive
Activity [2]: inactive
Activity [3]: inactive

Compound: CC(=O)OCOC(=O)Cn1cnc2c(NCc3ccco3)nc(NCc3ccc(C4CCCCC4)cc3)nc21
Activity [1]: inactive
Activity [2]: inactive
Activity [3]: inactive

Compound: CCOC(=O)Cn1cnc2c(NC3CCCC3)nc(NCc3ccc(C4CCCCC4)cc3)nc21
Activity [1]: inactive
Activity [2]: inactive
Activity [3]: inactive

Compound: CC(C)CNc1nc(NCc2ccc(C3CCCCC3)cc2)nc2c1ncn2CC(=O)OCOC(=O)C(C)(C)C
Activity [1]: inactive
Activity [2]: inactive
Activity [3]: inactive

Compound: NS(=O)(=O)OCCn1cnc2c(NC3CCCC3)nc(NCc3ccc(C4CCCCC4)cc3)nc21
Activity [1]: inactive
Activity [2]: inactive
Activity [3]: inactive

Compound: CC(C)(C)C(=O)OCOC(=O)Cn1cnc2c(Oc3ccc([N+](=O)[O-])cc3)nc(NCc3ccc(C4CCCCC4)cc3)nc21
Activity [1]: inactive
Activity [2]: inactive
Activity [3]: inactive

Compound: CCOC(=O)Cn1cnc2c(N3CCOCC3)nc(NC(=O)C3CCCCC3)nc21
Activity [1]: inactive
Activity [2]: inactive
Activity [3]: inactive

Compound: CCOC(=O)Cn1cnc2c(N3CCOCC3)nc(NCc3ccc(C4CCCCC4)cc3)nc21
Activity [1]: inactive
Activity [2]: inactive
Activity [3]: inactive

Compound: CC(=O)OCOC(=O)Cn1cnc2c(Oc3ccc([N+](=O)[O-])cc3)nc(NCc3ccc(C4CCCCC4)cc3)nc21
Activity [1]: inactive
Activity [2]: inactive
Activity [3]: inactive

Compound: CC(C)CCNc1nc(NCc2ccc(C3CCCCC3)cc2)nc2c1ncn2CCc1nnn[nH]1
Activity [1]: inactive
Activity [2]: inactive
Activity [3]: inactive

Compound: c1cc(C2CCCCC2)ccc1CNc1nc(NC2CCCC2)c2ncn(CCc3nnn[nH]3)c2n1
Activity [1]: inactive
Activity [2]: inactive
Activity [3]: inactive

Compound: CCOC(=O)Cn1cnc2c(Oc3ccc([N+](=O)[O-])cc3)nc(NCc3ccc(C4CCCCC4)cc3)nc21
Activity [1]: inactive
Activity [2]: inactive
Activity [3]: inactive

Compound: CC(C)(C)C(=O)OCOC(=O)Cn1cnc2c(N3CCOCC3)nc(NCc3ccc(C4CCCCC4)cc3)nc21
Activity [1]: inactive
Activity [2]: inactive
Activity [3]: inactive

Compound: CC(=O)OCOC(=O)Cn1cnc2c(NCCC(C)C)nc(NCc3ccc(C4CCCCC4)cc3)nc21
Activity [1]: inactive
Activity [2]: inactive
Activity [3]: inactive

Compound: NS(=O)(=O)OCCn1cnc2c(Oc3ccc([N+](=O)[O-])cc3)nc(NCc3ccc(C4CCCCC4)cc3)nc21
Activity [1]: inactive
Activity [2]: inactive
Activity [3]: inactive

Compound: CCOC(=O)Cn1cnc2c(NCc3ccco3)nc(NCc3ccc(C4CCCCC4)cc3)nc21
Activity [1]: inactive
Activity [2]: inactive
Activity [3]: inactive

Compound: O=[N+]([O-])c1ccc(Oc2nc(NCc3ccc(C4CCCCC4)cc3)nc3c2ncn3CCc2nnn[nH]2)cc1
Activity [1]: inactive
Activity [2]: inactive
Activity [3]: inactive

Compound: c1cc(C2CCCCC2)ccc1CNc1nc(N2CCOCC2)c2ncn(CCc3nnn[nH]3)c2n1
Activity [1]: inactive
Activity [2]: inactive
Activity [3]: inactive

Compound: N[C@@H](Cc1ccc(N(CCCl)CCCl)cc1)C(=O)O [MELPHALAN]
viability at 15 µM [4]: 30.8%
Activity [5]: 23.7%
Activity [6]: 19.3%
viability at 15 µM [7]: 54.5%
Activity [8]: 34%
Activity [9]: 34.8%

inhibition [10]: inactive
Compound: CCOC(=O)Cn1cnc2c(Nc3ccc(F)cc3)nc(NCc3ccc(C4CCCCC4)cc3)nc21
Activity [1]: inactive
Activity [2]: inactive
Activity [3]: inactive

Compound: CC(=O)OCOC(=O)Cn1cnc2c(NC3CCCC3)nc(NCc3ccc(C4CCCCC4)cc3)nc21
Activity [1]: inactive
Activity [2]: inactive
Activity [3]: inactive

inhibition [10]: inactive
Compound: Fc1ccc(Nc2nc(NCc3ccc(C4CCCCC4)cc3)nc3c2ncn3CCc2nnn[nH]2)cc1
Activity [1]: inactive
Activity [2]: inactive
Activity [3]: inactive

Compound: CC(C)CCNc1nc(NCc2ccc(C3CCCCC3)cc2)nc2c1ncn2CCOS(N)(=O)=O
Activity [1]: inactive
Activity [2]: inactive
Activity [3]: inactive

inhibition [10]: inactive
Compound: NS(=O)(=O)OCCn1cnc2c(N3CCOCC3)nc(NC(=O)C3CCCCC3)nc21
Activity [1]: inactive
Activity [2]: inactive
Activity [3]: inactive

Compound: CC(C)CNc1nc(NCc2ccc(C3CCCCC3)cc2)nc2c1ncn2CCc1nnn[nH]1
Activity [1]: inactive
Activity [2]: inactive
Activity [3]: inactive

Compound: CCOC(=O)Cn1cnc2c(NCC(C)C)nc(NCc3ccc(C4CCCCC4)cc3)nc21
Activity [1]: inactive
Activity [2]: inactive
Activity [3]: inactive

inhibition [10]: inactive
Compound: CC(=O)OCOC(=O)Cn1cnc2c(Nc3ccc(F)cc3)nc(NCc3ccc(C4CCCCC4)cc3)nc21
Activity [1]: inactive
Activity [2]: inactive
Activity [3]: inactive

inhibition [10]: inactive
Compound: c1coc(CNc2nc(NCc3ccc(C4CCCCC4)cc3)nc3c2ncn3CCc2nnn[nH]2)c1
Activity [1]: inactive
Activity [2]: inactive
Activity [3]: inactive

Compound: CC(=O)OCOC(=O)Cn1cnc2c(NCC(C)C)nc(NCc3ccc(C4CCCCC4)cc3)nc21
Activity [1]: inactive
Activity [2]: inactive
Activity [3]: inactive

Compound: CC(C)(C)C(=O)OCOC(=O)Cn1cnc2c(NCc3ccco3)nc(NCc3ccc(C4CCCCC4)cc3)nc21
Activity [1]: inactive
Activity [2]: inactive
Activity [3]: inactive

Compound: CC(=O)OCOC(=O)Cn1cnc2c(N3CCOCC3)nc(NC(=O)C3CCCCC3)nc21
Activity [1]: inactive
Activity [2]: inactive
Activity [3]: inactive

Compound: CC(C)CNc1nc(NCc2ccc(C3CCCCC3)cc2)nc2c1ncn2CCOS(N)(=O)=O
Activity [1]: inactive
Activity [2]: inactive
Activity [3]: inactive

Compound: NS(=O)(=O)OCCn1cnc2c(N3CCOCC3)nc(NCc3ccc(C4CCCCC4)cc3)nc21
Activity [1]: inactive
Activity [2]: inactive
Activity [3]: inactive

Compound: NS(=O)(=O)OCCn1cnc2c(NCc3ccco3)nc(NCc3ccc(C4CCCCC4)cc3)nc21
Activity [1]: inactive
Activity [2]: inactive
Activity [3]: inactive

Compound: O=C(Nc1nc(N2CCOCC2)c2ncn(CCc3nnn[nH]3)c2n1)C1CCCCC1
Activity [1]: inactive
Activity [2]: inactive
Activity [3]: inactive

Compound: CC(C)(C)C(=O)OCOC(=O)Cn1cnc2c(NC3CCCC3)nc(NCc3ccc(C4CCCCC4)cc3)nc21
Activity [1]: inactive
Activity [2]: inactive
Activity [3]: inactive

inhibition [10]: inactive
Compound: CC(C)(C)C(=O)OCOC(=O)Cn1cnc2c(Nc3ccc(F)cc3)nc(NCc3ccc(C4CCCCC4)cc3)nc21
Activity [1]: inactive
Activity [2]: inactive
Activity [3]: inactive

Compound: CC(C)(C)C(=O)OCOC(=O)Cn1cnc2c(N3CCOCC3)nc(NC(=O)C3CCCCC3)nc21
Activity [1]: inactive
Activity [2]: inactive
Activity [3]: inactive

Compound: CC(C)CCNc1nc(NCc2ccc(C3CCCCC3)cc2)nc2c1ncn2CC(=O)OCOC(=O)C(C)(C)C
Activity [1]: inactive
Activity [2]: inactive
Activity [3]: inactive

Compound: CC(=O)OCOC(=O)Cn1cnc2c(N3CCOCC3)nc(NCc3ccc(C4CCCCC4)cc3)nc21
Activity [1]: inactive
Activity [2]: inactive
Activity [3]: inactive
